Measurements taken from patent publication US20100278733A1, “COMPOSITION FOR DIAGNOSIS OF AMYLOID-RELATED DISEASE” (priority 2007, published 2010).
Blank lines part the entries; values can stand above or below the compound they belong to.

What was measured:
Aβ(1-42) aggregate = target: T1, Aβ(1-42) aggregate (Homo sapiens, UniProt P05067); experiment: Binding inhibition experiment using Aβ(1-42) aggregate, Ki values (Example 2); conditions: compound numbers of Example 2; for Ki: radioactive ligand [^125I]CL-NMe2, mean ± standard error of 3 experiments (compound 4: 6 experiments), read-out: Ki values calculated by inhibition experiment; for binding affinity for the Aβ(1-42) aggregate: in words, derivatives with two substituents on Ring A
T1 construct: Amyloid β protein (Human, 1-42) [TFA form] was purchased from Peptide Institute, Inc; purchased Peptide Institute, Inc
Description: As a radioactive iodine-125 (^125I), Iodine-125 (3.7 GBq/mL) manufactured by MP Biomedicals, Inc. was used. Reverse phase HPLC was performed at a flow rate of 1.0 mL/min using a Cosmosil 5C18-AR-II column (4.6×150 mm) manufactured by Nacalai Tesque Inc. and ultrapure water:acetonitrile=3:7 as an elution solvent. ^1HNMR was measured using Varian Gemini 300 and tetramethylsilane as an internal standard substance. Mass spectrometry was performed using JEOL IMS-DX300. Preparative TLC was performed using 12 PLC plates 20×20-cm-Silica gel 60 F254, 2 mm manufactured by MERCK. Amyloid β protein (Human, 1-42) was purchased from Peptide Institute, Inc., and special grade reagents were used as other reagents.
Aβ(1-42) was dissolved in 10 mM phosphate buffer containing 1 mM EDTA (pH 7.4) at a concentration of 0.25 mg/mL, and the mixture was incubated at 37° C. for 42 h to prepare an Aβ(1-42) aggregate.
[…] of 10% EtOH solution, […] of a solution of [^125I]4-diethylamino-4′-iodochalcone ([^125I]CL-NMe2) in 10% ethanol, and […] of a sample solution at various concentrations (0 to 20 mM) were mixed, […] of an Aβ(1-42) aggregate solution was finally added, and the mixture was allowed to stand at room temperature for 3 h. Aβ(1-42) aggregate-bound compounds and nonbound compounds were separated with a Brandel M-24R cell harvester using a Whatman GF/B filter. Radioactivities remaining on the filter after filtration were measured with a γ-counter, and inhibition curves were created using Graph Pad Prism 4.0 to calculate inhibition constants (Ki values).

[1] = In-vivo radioactivity distribution experiment in mice (Reference Example 1); conditions: intravenous, mean (standard deviation), Reference Example 1 numbering
Description: A radioactive iodine-labeled compound (Compound 7) was diluted with physiological saline containing 5 to 10% ethanol. Three to five 5-week-old male ddY mice (25 to 30 g) per group were decapitated at 2, 10, 30, or 60 min after intravenous administration of […] (0.5 to 1 μCi) of the labeled compound, blood was collected, organs were removed, and weights and radioactivities thereof were measured.

[2] = In-vivo radioactivity distribution experiment using normal mice (Example 2); conditions: normal mice, intravenous, Example 2 numbering
Description: Radioactive iodine labeling compounds were diluted with physiological saline containing 10% EtOH. To each of four or five 5-week-old male ddY mice (20 to 25 g) per group, […] of a labeled compound, [^125I]Compound 7, 10, 13, or 14 (0.2 to 0.4 mCi), was administered from the caudal vein. Animals were decapitated at 2, 10, 30, or 60 min, blood was collected, the major organs were isolated, and then weights and radioactivities thereof were measured.

T1 sequence (P05067 672-713 limits assumed): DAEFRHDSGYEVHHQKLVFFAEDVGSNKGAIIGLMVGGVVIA

SMILES: CN(C)c1ccc(C=CC(=O)c2ccc(Br)o2)cc1 [Compound 32 in Example 2, 1-(5-bromo-2-furanyl)-3-(4-dimethylaminophenyl)-prop-2-en-1-one]
- Ki (Aβ(1-42) aggregate): 126 ± 12.5 nM

SMILES: CNc1ccc(C=CC(=O)c2ccc(I)cc2)cc1 [CL-NHMe, reference compound]
- Ki (Aβ(1-42) aggregate): 6.3 ± 1.6 nM

SMILES: Nc1ccc(/C=C/C(=O)c2ccc(I)cc2)c(N)c1 [Compound 39 in Example 2, 2,4-diamino-4′-iodochalcone]
- binding affinity for the Aβ(1-42) aggregate (Aβ(1-42) aggregate): no compound showed a high binding affinity

SMILES: Nc1ccc(C=CC(=O)c2ccc(I)cc2)cc1 [CL-NH2, reference compound]
- Ki (Aβ(1-42) aggregate): 105 ± 12 nM

SMILES: CN(C)c1ccc(C=CC(=O)c2ccc(Br)o2)s1 [Compound 35 in Example 2, 1-(5-bromo-2-furyl)-3-(5-dimethylamino-2-thienyl)-prop-2-en-1-one]
- Ki (Aβ(1-42) aggregate): 2650 ± 221 nM

SMILES: CN(C)c1ccc(C=CC(=O)c2ccc(Br)o2)o1 [Compound 34 in Example 2, 1-(5-bromo-2-furyl)-3-(5-dimethylamino-2-furyl)-prop-2-en-1-one]
- Ki (Aβ(1-42) aggregate): > 10000 nM

SMILES: CN(C)c1ccc(C=CC(=O)c2ccc(I)s2)s1 [Compound 37 in Example 2, 3-(S-dimethylamino-2-thienyl)-1-(5-iodo-2-thienyl)-prop-2-en-1-one]
- Ki (Aβ(1-42) aggregate): 137 ± 3.4 nM

SMILES: CN(C)c1ccc(C=CC(=O)c2ccc(I)s2)o1 [Compound 36 in Example 2, 3-(5-dimethylamino-2-furyl)-1-(5-iodo-2-thienyl)-prop-2-en-1-one]
- Ki (Aβ(1-42) aggregate): 1610 ± 84.5 nM

Now from value to compound, other results behind:

- Ki (Aβ(1-42) aggregate): 113 ± 10.1 nM
SMILES: CN(C)c1ccc(C=CC(=O)c2ccc(I)cc2)s1 [Compound 33 in Example 2, 3-(5-dimethylamino-2-thienyl)-1-(4-iodophenyl)-prop-2-en-1-one]

- Ki (Aβ(1-42) aggregate): 1130 ± 344 nM
SMILES: CN(C)c1ccc(C=CC(=O)c2ccc(I)cc2)o1 [Compound 31 in Example 2, 1-(4-iodophenyl)-3-(5-dimethylamino-2-furanyl)-prop-2-en-1-one]

- Ki (Aβ(1-42) aggregate): 157 ± 80.8 nM
SMILES: COc1ccc(/C=C/C(=O)c2ccc(I)cc2)cc1O [Compound 41 in Example 2, 3-hydroxy-4′-iodo-4-methoxychalcone]
- binding affinity for the Aβ(1-42) aggregate (Aβ(1-42) aggregate): no compound showed a high binding affinity

- Ki (Aβ(1-42) aggregate): 223 ± 76.1 nM
SMILES: COc1ccc(/C=C/C(=O)c2ccc(I)cc2)cc1OC [Compound 42 in Example 2, 3,4-dimethoxy-4′-iodochalcone]
- binding affinity for the Aβ(1-42) aggregate (Aβ(1-42) aggregate): no compound showed a high binding affinity

- Ki (Aβ(1-42) aggregate): > 10000 nM
SMILES: O=C(C=Cc1nccs1)c1ccc(I)cc1 [Compound 27 in Example 2, 1-(4-iodophenyl)-3-(thiazol-2-yl)-prop-2-en-1-one]

- Ki (Aβ(1-42) aggregate): 102 ± 15.9 nM
SMILES: O=C(C=Cc1cccs1)c1ccc(I)cc1 [Compound 24 in Example 2, 1-(4-iodophenyl)-3-(2-thienyl)-prop-2-en-1-one]

- In-vivo distribution of radioactivity: Blood ([1]; 2 min): 4.90 (0.52) percents of the dose/g
- In-vivo distribution of radioactivity: Brain ([1]; 2 min): 2.52 (0.20) percents of the dose/g
- In-vivo distribution of radioactivity: Heart ([1]; 2 min): 5.58 (0.99) percents of the dose/g
- In-vivo distribution of radioactivity: Intestines ([1]; 2 min): 2.50 (0.31) percents of the dose/g
- In-vivo distribution of radioactivity: Kidneys ([1]; 2 min): 11.99 (3.60) percents of the dose/g
- In-vivo distribution of radioactivity: Liver ([1]; 2 min): 15.71 (1.27) percents of the dose/g
- In-vivo distribution of radioactivity: Spleen ([1]; 2 min): 2.57 (0.42) percents of the dose/g
- In-vivo distribution of radioactivity: Blood ([1]; 10 min): 3.80 (0.91) percents of the dose/g
- In-vivo distribution of radioactivity: Brain ([1]; 10 min): 1.28 (0.17) percents of the dose/g
- In-vivo distribution of radioactivity: Heart ([1]; 10 min): 2.88 (1.02) percents of the dose/g
- In-vivo distribution of radioactivity: Intestines ([1]; 10 min): 10.52 (1.82) percents of the dose/g
- In-vivo distribution of radioactivity: Kidneys ([1]; 10 min): 9.16 (2.76) percents of the dose/g
- In-vivo distribution of radioactivity: Liver ([1]; 10 min): 18.55 (2.68) percents of the dose/g
- In-vivo distribution of radioactivity: Spleen ([1]; 10 min): 1.80 (0.30) percents of the dose/g
- In-vivo distribution of radioactivity: Blood ([1]; 30 min): 1.84 (0.31) percents of the dose/g
- In-vivo distribution of radioactivity: Brain ([1]; 30 min): 0.40 (0.11) percents of the dose/g
- In-vivo distribution of radioactivity: Heart ([1]; 30 min): 1.44 (0.34) percents of the dose/g
- In-vivo distribution of radioactivity: Intestines ([1]; 30 min): 20.60 (6.13) percents of the dose/g
- In-vivo distribution of radioactivity: Kidneys ([1]; 30 min): 5.00 (2.27) percents of the dose/g
- In-vivo distribution of radioactivity: Liver ([1]; 30 min): 7.67 (1.68) percents of the dose/g
- In-vivo distribution of radioactivity: Spleen ([1]; 30 min): 1.03 (0.04) percents of the dose/g
- In-vivo distribution of radioactivity: Blood ([1]; 60 min): 1.15 (0.44) percents of the dose/g
- In-vivo distribution of radioactivity: Brain ([1]; 60 min): 0.35 (0.05) percents of the dose/g
- In-vivo distribution of radioactivity: Heart ([1]; 60 min): 1.38 (0.34) percents of the dose/g
- In-vivo distribution of radioactivity: Intestines ([1]; 60 min): 29.31 (3.26) percents of the dose/g
- In-vivo distribution of radioactivity: Kidneys ([1]; 60 min): 4.31 (0.81) percents of the dose/g
- In-vivo distribution of radioactivity: Liver ([1]; 60 min): 4.05 (0.61) percents of the dose/g
- In-vivo distribution of radioactivity: Spleen ([1]; 60 min): 0.88 (0.15) percents of the dose/g
SMILES: COc1cc(/C=C/C(=O)c2cccc(I)c2)ccc1O [Compound 7 in Reference Example 1, (E)-3-(4-hydroxy-3-methoxyphenyl)-1-(3-iodophenyl)prop-2-en-1-one]

- In-vivo radioactivity distribution: blood ([2]; 2 min): 1.76 (0.27) percent of the dose/g
- In-vivo radioactivity distribution: brain ([2]; 2 min): 3.07 (0.57) percent of the dose/g
- In-vivo radioactivity distribution: heart ([2]; 2 min): 5.00 (0.79) percent of the dose/g
- In-vivo radioactivity distribution: intestine ([2]; 2 min): 2.52 (0.81) percent of the dose/g
- In-vivo radioactivity distribution: kidney ([2]; 2 min): 6.20 (0.93) percent of the dose/g
- In-vivo radioactivity distribution: liver ([2]; 2 min): 10.82 (2.61) percent of the dose/g
- In-vivo radioactivity distribution: lung ([2]; 2 min): 11.10 (3.36) percent of the dose/g
- In-vivo radioactivity distribution: pancreas ([2]; 2 min): 4.93 (1.01) percent of the dose/g
- In-vivo radioactivity distribution: spleen ([2]; 2 min): 2.27 (0.48) percent of the dose/g
- In-vivo radioactivity distribution: stomach ([2]; 2 min): 1.06 (0.67) percent of the dose
- In-vivo radioactivity distribution: blood ([2]; 10 min): 1.43 (0.30) percent of the dose/g
- In-vivo radioactivity distribution: brain ([2]; 10 min): 2.03 (0.41) percent of the dose/g
- In-vivo radioactivity distribution: heart ([2]; 10 min): 1.98 (0.24) percent of the dose/g
- In-vivo radioactivity distribution: intestine ([2]; 10 min): 7.78 (1.31) percent of the dose/g
- In-vivo radioactivity distribution: kidney ([2]; 10 min): 4.56 (0.67) percent of the dose/g
- In-vivo radioactivity distribution: liver ([2]; 10 min): 9.42 (1.92) percent of the dose/g
- In-vivo radioactivity distribution: lung ([2]; 10 min): 4.94 (1.73) percent of the dose/g
- In-vivo radioactivity distribution: pancreas ([2]; 10 min): 2.99 (1.70) percent of the dose/g
- In-vivo radioactivity distribution: spleen ([2]; 10 min): 1.47 (0.27) percent of the dose/g
- In-vivo radioactivity distribution: stomach ([2]; 10 min): 0.87 (0.38) percent of the dose
- In-vivo radioactivity distribution: blood ([2]; 30 min): 1.15 (0.57) percent of the dose/g
- In-vivo radioactivity distribution: brain ([2]; 30 min): 0.69 (0.09) percent of the dose/g
- In-vivo radioactivity distribution: heart ([2]; 30 min): 0.98 (0.20) percent of the dose/g
- In-vivo radioactivity distribution: intestine ([2]; 30 min): 17.52 (1.74) percent of the dose/g
- In-vivo radioactivity distribution: kidney ([2]; 30 min): 3.92 (1.05) percent of the dose/g
- In-vivo radioactivity distribution: liver ([2]; 30 min): 6.77 (1.21) percent of the dose/g
- In-vivo radioactivity distribution: lung ([2]; 30 min): 2.22 (0.58) percent of the dose/g
- In-vivo radioactivity distribution: pancreas ([2]; 30 min): 1.04 (0.35) percent of the dose/g
- In-vivo radioactivity distribution: spleen ([2]; 30 min): 0.94 (0.48) percent of the dose/g
- In-vivo radioactivity distribution: stomach ([2]; 30 min): 0.70(0.11) percent of the dose
- In-vivo radioactivity distribution: blood ([2]; 60 min): 1.51 (0.26) percent of the dose/g
- In-vivo radioactivity distribution: brain ([2]; 60 min): 0.40 (0.08) percent of the dose/g
- In-vivo radioactivity distribution: heart ([2]; 60 min): 0.82 (0.14) percent of the dose/g
- In-vivo radioactivity distribution: intestine ([2]; 60 min): 18.47 (2.31) percent of the dose/g
- In-vivo radioactivity distribution: kidney ([2]; 60 min): 4.04 (1.10) percent of the dose/g
- In-vivo radioactivity distribution: liver ([2]; 60 min): 6.01 (1.81) percent of the dose/g
- In-vivo radioactivity distribution: lung ([2]; 60 min): 1.57 (0.23) percent of the dose/g
- In-vivo radioactivity distribution: pancreas ([2]; 60 min): 0.78 (0.16) percent of the dose/g
- In-vivo radioactivity distribution: spleen ([2]; 60 min): 0.71 (0.19) percent of the dose/g
- In-vivo radioactivity distribution: stomach ([2]; 60 min): 1.14 (0.48) percent of the dose
SMILES: CNc1ccc(C(=O)/C=C/c2ccc(I)cc2)cc1 [Compound 7 in Example 2, 4-iodo-4′-methylaminochalcone]
